Assays:
[1] = system: Puccinia recondita f. Sp. Tritici; experiment: Fungicidal activity against Puccinia recondita f. sp. tritici / wheat / leaf disc preventative (brown rust); type: in vivo; settings: foliar, 200 ppm in the applied formulation, wheat leaf segments, preventative, compared to untreated control leaf disks, read-out: disease control
Procedure, shortened: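 200 ppm spray on wheat cv. Kanzler leaf segments; spore inoculation +1 day; 19° C., 75% rh, 12 h/12 h light cycle; single rating of % control vs untreated at 7 to 9 days.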

[2] = system: Puccinia recondita f. Sp. Tritici; experiment: Fungicidal activity against Puccinia recondita f. sp. tritici / wheat / leaf disc curative (brown rust); type: in vivo; settings: foliar, 24 h, 200 ppm in the applied formulation, wheat leaf segments, curative (applied 1 day after inoculation), compared to untreated control leaf disks, read-out: disease control
Procedure, shortened: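 Scoring is percent disease control relative to untreated segments, made 6 to 8 days after treatment. Wheat (cv. Kanzler) leaf segments received the formulated, water-diluted compound one day post-inoculation with spores, having been kept dark at 19° C and 75% RH, then incubated under 12 h light/12 h dark at the same temperature and humidity.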

[3] = system: Phakopsora Pachyrhizi; experiment: Fungicidal activity against Phakopsora pachyrhizi / soybean / leaf disc preventative (Asian soybean rust); type: in vivo; settings: foliar, 200 ppm in the applied formulation, soybean leaf disks, compared to untreated control leaf disks, read-out: disease control
Procedure, shortened: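 Scored 12 to 14 days post-application as percent control relative to untreated check discs, rust spores were sprayed under the disc one day after compound treatment. Incubation: 20°C, 75% rh, first 24–36 h in darkness, then 12 h daily light; discs kept on water agar.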

[4] = system: Glomerella lagenarium (Colletotrichum lagenarium); experiment: Fungicidal activity against Glomerella lagenarium (Colletotrichum lagenarium) liquid culture / cucumber / preventative (anthracnose); type: cell-based; settings: Colletotrichum orbiculare; 20 ppm in the applied formulation; liquid culture (PDB), growth inhibition measured photometrically after 3 to 4 days; compared to untreated control; read-out: disease control
Procedure, shortened: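 Percent activity against the untreated check was derived from photometric growth measurements made 2 to 7 days after conidia in potato dextrose broth were combined with compound at 20 ppm. Cultures were kept dark at 24 °C and 96% humidity.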

O=C(C1CCC1)N(CCO)Cc1ccc(-c2noc(C(F)(F)F)n2)cc1 [Compound 1.714, N-(2-hydroxyethyl)-N-[[4-[5-(trifluoromethyl)-1,2,4-oxadiazol-3-yl]phenyl]methyl]-cyclobutane-carboxamide]
≥ 80%: pest or weed control at 200 ppm [1] | pest or weed control at 200 ppm [2] | pest or weed control at 200 ppm [3] | inhibition of growth at 20 ppm [4]

C#CCN(Cc1ccc(-c2noc(C(F)(F)F)n2)cc1)C(=O)C1CCC1 [Compound 1.178, N-prop-2-ynyl-N-[[4-[5-(trifluoromethyl)-1,2,4-oxadiazol-3-yl]phenyl]methyl]-cyclobutane-carboxamide]
≥ 80%: pest or weed control at 200 ppm [1] | pest or weed control at 200 ppm [2] | pest or weed control at 200 ppm [3] | inhibition of growth at 20 ppm [4]

CON(Cc1ccc(-c2noc(C(F)(F)F)n2)cc1)C(=O)NCc1ccco1 [Compound 3.24, 3-(2-furylmethyl)-1-methoxy-1-[[4-[5-(trifluoromethyl)-1,2,4-oxadiazol-3-yl]phenyl]methyl]urea]
≥ 80%: pest or weed control at 200 ppm [1] | pest or weed control at 200 ppm [2] | pest or weed control at 200 ppm [3] | inhibition of growth at 20 ppm [4]

CCON(Cc1ccc(-c2noc(C(F)(F)F)n2)cc1)C(=O)C(CC)COC (stereo not drawn) [Compound 1.624, N-ethoxy-2-(methoxymethyl)-N-[[4-[5-(trifluoromethyl)-1,2,4-oxadiazol-3-yl]phenyl]methyl]-butanamide]
≥ 80%: pest or weed control at 200 ppm [1] | pest or weed control at 200 ppm [2] | pest or weed control at 200 ppm [3] | inhibition of growth at 20 ppm [4]

CCC(C)N(Cc1ccc(-c2noc(C(F)(F)F)n2)cc1)C(=O)COC(C)=O (stereo not drawn) [Compound 1.392, [2-oxo-2-[sec-butyl-[[4-[5-(trifluoromethyl)-1,2,4-oxadiazol-3-yl]phenyl]methyl]-amino]ethyl] acetate]
≥ 80%: pest or weed control at 200 ppm [1] | pest or weed control at 200 ppm [2] | pest or weed control at 200 ppm [3] | inhibition of growth at 20 ppm [4]

CCN(Cc1ccc(-c2noc(C(F)(F)F)n2)cc1)C(=O)C1CCCC1 [Compound 1.495, N-ethyl-N-[[4-[5-(trifluoromethyl)-1,2,4-oxadiazol-3-yl]phenyl]methyl]-cyclopentane-carboxamide]
≥ 80%: pest or weed control at 200 ppm [1] | pest or weed control at 200 ppm [2] | pest or weed control at 200 ppm [3] | inhibition of growth at 20 ppm [4]

C#CCN(Cc1ccc(-c2noc(C(F)(F)F)n2)cc1)C(=O)CC(F)(F)F [Compound 1.177, 3,3,3-trifluoro-N-prop-2-ynyl-N-[[4-[5-(trifluoromethyl)-1,2,4-oxadiazol-3-yl]phenyl]methyl]-propanamide]
≥ 80%: pest or weed control at 200 ppm [1] | pest or weed control at 200 ppm [2] | pest or weed control at 200 ppm [3] | inhibition of growth at 20 ppm [4]

CON(Cc1ccc(-c2noc(C(F)(F)F)n2)cc1)C(=O)C(C)O (stereo not drawn) [Compound 1.786, 2-hydroxy-N-methoxy-N-[[4-[5-(trifluoromethyl)-1,2,4-oxadiazol-3-yl]phenyl]methyl]-propanamide]
≥ 80%: pest or weed control at 200 ppm [1] | pest or weed control at 200 ppm [2] | pest or weed control at 200 ppm [3] | inhibition of growth at 20 ppm [4]

N#CC1(C(=O)N(Cc2ccc(-c3noc(C(F)(F)F)n3)cc2)C2COC2)CC1 [Compound 1.749, 1-cyano-N-(oxetan-3-yl)-N-[[4-[5-(trifluoromethyl)-1,2,4-oxadiazol-3-yl]phenyl]methyl]-cyclopropane-carboxamide]
≥ 80%: pest or weed control at 200 ppm [1] | pest or weed control at 200 ppm [2] | pest or weed control at 200 ppm [3] | inhibition of growth at 20 ppm [4]

Source: US11180462B2, “Microbiocidal oxadiazole derivatives” (SYNGENTA PARTICIPATIONS AG, priority 2015, dated 2021)
